The values below are quoted from earlier work in US6617154B1, “Electroporation chamber including an electrode having a continuous, crystalline metal nitride coating” (MaxCyte, Inc., priority 1996, dated 2003).

Each structure is given as a SMILES string.

For data set [1] the following is noted: experimental animals; DPG or its precursors.
The target in data set [2] is T1, hemoglobin (Homo sapiens, UniProt P68871). Conditions: pH 7.4, 37 degrees C.
Data set [3] concerns mammalian erythrocyte membrane.
Data set [4] concerns the target T1, hemoglobin. Conditions: relative to DPG.
For data set [5] the following is noted: under ordinary circumstances, not bound to hemoglobin.

T1 sequence (P68871 2-147 limits assumed): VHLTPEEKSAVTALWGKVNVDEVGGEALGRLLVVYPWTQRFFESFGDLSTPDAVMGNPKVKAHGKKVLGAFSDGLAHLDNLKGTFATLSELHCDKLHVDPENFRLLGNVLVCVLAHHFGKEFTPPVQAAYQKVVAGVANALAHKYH
T1 sequence (P69905 2-142 partner limits assumed): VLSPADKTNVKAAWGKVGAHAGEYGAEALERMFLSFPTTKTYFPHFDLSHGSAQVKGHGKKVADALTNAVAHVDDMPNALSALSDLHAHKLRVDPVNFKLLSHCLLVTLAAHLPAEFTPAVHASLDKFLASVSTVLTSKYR

In the case of `O=C(O)C(COP(=O)(O)O)OP(=O)(O)O` (centres unmarked) [DPG, 2,3-diphosphoglycerate], the “duration of transient elevation of oxygen deposition” value in data set [1] was 6 to 12 h.
For the compound `O=P(O)(O)O[C@H]1[C@H](OP(=O)(O)O)[C@@H](OP(=O)(O)O)[C@H](OP(=O)(O)O)[C@@H](OP(=O)(O)O)[C@H]1OP(=O)(O)O` [IHP, inositol hexaphosphate], the P50 of hemoglobin at hemoglobin [2] was no more than 96.4 mm Hg. Moreover, the “passage through the mammalian erythrocyte membrane” value in data set [3] is listed as “unable to pass”. Also, the “affinity to hemoglobin, higher than DPG” value on hemoglobin [4] is 1000 fold. For the same compound, the toxicity entry in data set [5] was “toxic”.
